Test results published in the kinase profiling compilation of Christmann-Franck et al. (2016).
“And” between values parts separate entries of the source, which are not always exact repeats. Equal values may be shown once. Blank lines part the entries; values can stand above or below the compound they belong to.

What was measured:
Experiment in all cases: Caliper, Mobility shift assay off-chip
[1] = target: SRC (human) (UniProt P12931)
[2] = target: FYN (human) (UniProt P06241)
[3] = target: CSNK1A1 (human) (UniProt P48729)
[4] = target: ROCK2 (human) (UniProt O75116)
[5] = target: RAF1 (human) (UniProt P04049)
[6] = target: PRKCB1 (human) (UniProt P05771)
[7] = target: HCK (human) (UniProt P08631)
[8] = test system: ABL1 (human), P00519 [Q252H]
[9] = target: AKT3 (human) (UniProt Q9Y243)
[10] = target: RPS6KA3 KD1 KD2 (human) (UniProt P51812)
[11] = target: CAMK4 (human) (UniProt Q16566)
[12] = target: SGK3 (human) (UniProt Q96BR1)
[13] = target: AURKA (human) (UniProt O14965)
[14] = target: PRKCH (human) (UniProt P24723)
[15] = target: FLT3 (human) (UniProt P36888)
[16] = target: AKT1 (human) (UniProt P31749)
[17] = target: BMX (human) (UniProt P51813)
[18] = target: CHEK1 (human) (UniProt O14757)
[19] = target: MARK3 (human) (UniProt P27448)
[20] = target: PIM2 (human) (UniProt Q9P1W9)
[21] = target: MAP4K4 (human) (UniProt O95819)
[22] = target: KDR (human) (UniProt P35968)
[23] = target: BRSK2 (human) (UniProt Q8IWQ3)
[24] = test system: ABL1 (human), P00519 [T315I]
[25] = target: FGFR2 (human) (UniProt P21802)
[26] = target: DCLK2 (human) (UniProt Q8N568)
[27] = target: NEK2 (human) (UniProt P51955)
[28] = target: RPS6KA1 KD1 KD2 (human) (UniProt Q15418)
[29] = target: BTK (human) (UniProt Q06187)
[30] = target: PRKG1 (human) (UniProt Q13976)
[31] = target: MAPK1 (human) (UniProt P28482)
[32] = target: EGFR (human) (UniProt P00533)
[33] = target: RPS6KA4 KD1 KD2 (human) (UniProt O75676)
[34] = target: FGFR4 (human) (UniProt P22455)

Chain of RPS6KA4 KD1 KD2 (human) (O75676 whole entry, looked up): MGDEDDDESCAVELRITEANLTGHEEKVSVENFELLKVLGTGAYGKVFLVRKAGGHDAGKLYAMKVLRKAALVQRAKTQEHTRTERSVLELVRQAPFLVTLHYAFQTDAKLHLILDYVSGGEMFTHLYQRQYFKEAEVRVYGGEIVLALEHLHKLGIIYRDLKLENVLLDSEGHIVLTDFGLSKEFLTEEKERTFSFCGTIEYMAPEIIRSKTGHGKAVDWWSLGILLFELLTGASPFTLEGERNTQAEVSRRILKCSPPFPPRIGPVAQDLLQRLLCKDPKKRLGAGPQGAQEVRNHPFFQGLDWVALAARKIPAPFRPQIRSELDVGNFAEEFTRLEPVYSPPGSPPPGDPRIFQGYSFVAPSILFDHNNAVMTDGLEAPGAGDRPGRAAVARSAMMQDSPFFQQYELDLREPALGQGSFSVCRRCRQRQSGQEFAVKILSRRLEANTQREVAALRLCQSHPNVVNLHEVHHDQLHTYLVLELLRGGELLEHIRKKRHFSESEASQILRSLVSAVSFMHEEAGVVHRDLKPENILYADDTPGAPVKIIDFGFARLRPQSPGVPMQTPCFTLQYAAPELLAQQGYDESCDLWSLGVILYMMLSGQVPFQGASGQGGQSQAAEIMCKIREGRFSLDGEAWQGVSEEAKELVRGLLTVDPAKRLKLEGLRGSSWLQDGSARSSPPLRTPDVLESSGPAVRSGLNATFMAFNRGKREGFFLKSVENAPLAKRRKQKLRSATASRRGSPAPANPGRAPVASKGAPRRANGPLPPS
Chain of BTK (human) (Q06187 whole entry, looked up): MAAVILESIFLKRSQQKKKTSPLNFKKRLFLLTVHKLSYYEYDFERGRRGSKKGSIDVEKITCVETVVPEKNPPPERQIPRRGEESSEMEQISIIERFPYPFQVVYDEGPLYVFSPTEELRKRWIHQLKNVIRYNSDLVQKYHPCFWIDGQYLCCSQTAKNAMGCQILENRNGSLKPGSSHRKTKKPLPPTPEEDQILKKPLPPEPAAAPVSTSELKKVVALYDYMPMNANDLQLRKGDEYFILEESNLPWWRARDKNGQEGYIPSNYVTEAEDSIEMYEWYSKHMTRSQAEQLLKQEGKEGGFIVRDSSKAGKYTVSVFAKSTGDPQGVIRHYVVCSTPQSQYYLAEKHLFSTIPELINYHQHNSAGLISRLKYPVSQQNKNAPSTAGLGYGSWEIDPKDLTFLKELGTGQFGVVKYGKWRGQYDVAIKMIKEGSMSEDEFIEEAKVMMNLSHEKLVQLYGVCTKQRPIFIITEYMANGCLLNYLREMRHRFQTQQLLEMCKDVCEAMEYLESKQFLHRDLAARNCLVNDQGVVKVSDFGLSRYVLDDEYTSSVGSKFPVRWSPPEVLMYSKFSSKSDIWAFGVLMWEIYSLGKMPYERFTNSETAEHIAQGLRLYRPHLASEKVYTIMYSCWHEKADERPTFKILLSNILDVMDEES
Chain of PRKG1 (human) (Q13976 whole entry, looked up): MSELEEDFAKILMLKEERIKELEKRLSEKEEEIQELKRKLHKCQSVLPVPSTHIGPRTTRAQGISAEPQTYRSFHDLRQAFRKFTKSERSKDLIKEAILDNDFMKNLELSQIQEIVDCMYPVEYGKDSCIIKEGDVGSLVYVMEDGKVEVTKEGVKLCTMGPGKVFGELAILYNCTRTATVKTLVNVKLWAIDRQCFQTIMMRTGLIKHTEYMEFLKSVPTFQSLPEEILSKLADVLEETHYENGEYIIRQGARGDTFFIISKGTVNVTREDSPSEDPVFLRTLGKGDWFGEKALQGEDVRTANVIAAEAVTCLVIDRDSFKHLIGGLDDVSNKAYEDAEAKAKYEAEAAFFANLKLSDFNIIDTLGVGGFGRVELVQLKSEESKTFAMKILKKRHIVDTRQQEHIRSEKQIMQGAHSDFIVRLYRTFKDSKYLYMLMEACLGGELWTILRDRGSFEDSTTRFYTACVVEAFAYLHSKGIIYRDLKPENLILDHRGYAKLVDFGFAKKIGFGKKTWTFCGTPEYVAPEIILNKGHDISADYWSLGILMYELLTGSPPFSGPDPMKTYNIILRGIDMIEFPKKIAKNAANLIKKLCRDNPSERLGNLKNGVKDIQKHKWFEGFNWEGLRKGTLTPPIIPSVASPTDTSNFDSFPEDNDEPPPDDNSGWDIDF
Chain of CHEK1 (human) (O14757 whole entry, looked up): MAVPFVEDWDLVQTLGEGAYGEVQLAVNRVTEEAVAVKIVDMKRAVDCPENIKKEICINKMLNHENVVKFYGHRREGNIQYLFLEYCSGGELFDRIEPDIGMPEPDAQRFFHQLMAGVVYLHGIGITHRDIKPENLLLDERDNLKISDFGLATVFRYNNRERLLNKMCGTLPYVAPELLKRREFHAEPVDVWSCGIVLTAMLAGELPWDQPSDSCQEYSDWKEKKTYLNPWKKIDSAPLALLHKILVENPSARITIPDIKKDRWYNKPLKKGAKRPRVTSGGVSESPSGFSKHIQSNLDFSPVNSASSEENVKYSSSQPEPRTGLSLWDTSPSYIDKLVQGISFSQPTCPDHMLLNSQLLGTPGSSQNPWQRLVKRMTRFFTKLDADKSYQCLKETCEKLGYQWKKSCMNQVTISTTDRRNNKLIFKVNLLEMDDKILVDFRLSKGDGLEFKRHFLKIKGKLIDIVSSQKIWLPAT
Chain of FLT3 (human) (P36888 whole entry, looked up): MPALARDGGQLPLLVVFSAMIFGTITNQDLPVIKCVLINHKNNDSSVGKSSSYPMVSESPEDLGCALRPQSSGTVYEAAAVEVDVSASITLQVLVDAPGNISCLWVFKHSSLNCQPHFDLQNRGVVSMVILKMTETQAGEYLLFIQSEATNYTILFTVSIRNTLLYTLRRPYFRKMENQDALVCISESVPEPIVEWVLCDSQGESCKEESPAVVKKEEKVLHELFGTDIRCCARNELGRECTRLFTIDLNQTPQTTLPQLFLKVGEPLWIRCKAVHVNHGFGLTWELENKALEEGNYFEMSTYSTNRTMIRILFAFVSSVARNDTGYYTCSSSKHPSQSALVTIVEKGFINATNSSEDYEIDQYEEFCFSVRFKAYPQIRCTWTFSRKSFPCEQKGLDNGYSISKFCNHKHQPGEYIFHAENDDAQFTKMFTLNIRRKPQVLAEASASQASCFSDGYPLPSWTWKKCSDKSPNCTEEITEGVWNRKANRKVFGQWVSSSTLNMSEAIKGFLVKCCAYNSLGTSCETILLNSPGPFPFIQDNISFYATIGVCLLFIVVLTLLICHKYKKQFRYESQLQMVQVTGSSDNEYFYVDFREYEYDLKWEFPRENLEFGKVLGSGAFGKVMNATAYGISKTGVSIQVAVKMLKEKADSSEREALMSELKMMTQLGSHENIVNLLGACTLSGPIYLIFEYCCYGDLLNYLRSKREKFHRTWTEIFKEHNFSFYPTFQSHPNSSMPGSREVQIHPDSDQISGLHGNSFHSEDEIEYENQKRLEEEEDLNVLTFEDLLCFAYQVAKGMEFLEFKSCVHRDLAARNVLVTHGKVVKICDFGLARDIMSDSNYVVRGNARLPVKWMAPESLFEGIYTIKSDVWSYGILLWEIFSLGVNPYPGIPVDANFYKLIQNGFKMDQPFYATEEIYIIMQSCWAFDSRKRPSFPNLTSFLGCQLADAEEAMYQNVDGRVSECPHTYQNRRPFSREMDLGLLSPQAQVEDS
Chain of BRSK2 (human) (Q8IWQ3 whole entry, looked up): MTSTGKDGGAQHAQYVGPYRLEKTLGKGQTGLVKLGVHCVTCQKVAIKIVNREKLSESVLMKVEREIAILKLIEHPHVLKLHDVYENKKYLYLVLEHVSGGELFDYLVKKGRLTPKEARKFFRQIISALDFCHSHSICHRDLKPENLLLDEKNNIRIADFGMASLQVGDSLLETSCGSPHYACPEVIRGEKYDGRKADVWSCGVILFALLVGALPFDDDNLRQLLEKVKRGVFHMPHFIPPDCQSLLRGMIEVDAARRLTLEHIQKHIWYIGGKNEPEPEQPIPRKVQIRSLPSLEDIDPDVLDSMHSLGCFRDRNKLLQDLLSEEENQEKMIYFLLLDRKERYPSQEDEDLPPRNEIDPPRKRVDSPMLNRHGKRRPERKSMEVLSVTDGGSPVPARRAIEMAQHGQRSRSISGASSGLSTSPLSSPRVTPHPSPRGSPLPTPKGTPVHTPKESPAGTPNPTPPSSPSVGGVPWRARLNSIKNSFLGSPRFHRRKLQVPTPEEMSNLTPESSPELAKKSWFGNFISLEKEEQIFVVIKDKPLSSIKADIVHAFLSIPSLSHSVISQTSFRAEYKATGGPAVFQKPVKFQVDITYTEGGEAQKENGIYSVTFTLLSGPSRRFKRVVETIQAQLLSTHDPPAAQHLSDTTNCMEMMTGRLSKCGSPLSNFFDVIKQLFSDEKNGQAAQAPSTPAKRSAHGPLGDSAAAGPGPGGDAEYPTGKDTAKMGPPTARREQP
Chain of CSNK1A1 (human) (P48729 whole entry, looked up): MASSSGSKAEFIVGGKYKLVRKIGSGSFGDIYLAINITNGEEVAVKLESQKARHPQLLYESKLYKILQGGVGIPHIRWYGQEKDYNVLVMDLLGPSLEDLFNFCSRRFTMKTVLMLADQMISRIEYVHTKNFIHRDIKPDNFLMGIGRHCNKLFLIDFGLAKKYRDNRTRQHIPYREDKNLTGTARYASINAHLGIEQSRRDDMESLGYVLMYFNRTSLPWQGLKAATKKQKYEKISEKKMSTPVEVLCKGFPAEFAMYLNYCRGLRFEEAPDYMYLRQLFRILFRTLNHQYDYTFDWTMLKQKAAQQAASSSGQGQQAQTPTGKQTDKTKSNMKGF
Chain of MAPK1 (human) (P28482 whole entry, looked up): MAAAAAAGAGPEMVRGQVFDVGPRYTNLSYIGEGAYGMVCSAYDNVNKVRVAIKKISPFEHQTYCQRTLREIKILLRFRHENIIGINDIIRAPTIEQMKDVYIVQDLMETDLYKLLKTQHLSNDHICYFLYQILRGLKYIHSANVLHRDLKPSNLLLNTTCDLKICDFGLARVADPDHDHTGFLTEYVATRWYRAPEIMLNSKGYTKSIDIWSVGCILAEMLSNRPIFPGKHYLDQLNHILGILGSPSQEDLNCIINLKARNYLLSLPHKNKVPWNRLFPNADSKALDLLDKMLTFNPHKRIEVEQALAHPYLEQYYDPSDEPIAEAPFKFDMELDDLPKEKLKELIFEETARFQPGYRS

inhibition ([1]; compound 0.01 µM): 2.2%
inhibition ([1]; compound 0.1 µM): -1.4%
inhibition ([2]; compound 0.01 µM): -0.7%
inhibition ([2]; compound 0.1 µM): -3%
inhibition ([3]; compound 0.01 µM): -2.8%
inhibition ([3]; compound 0.1 µM): 10.2%
inhibition ([4]; compound 0.01 µM): 6.2%
inhibition ([4]; compound 0.1 µM): 21.2%
inhibition ([5]; compound 0.01 µM): 2.2%
inhibition ([5]; compound 0.1 µM): 4.5%
inhibition ([6]; compound 0.01 µM): -6%
inhibition ([6]; compound 0.1 µM): 1.4%
inhibition ([7]; compound 0.01 µM): 3.5%
inhibition ([7]; compound 0.1 µM): 7.6%
inhibition ([8]; compound 0.01 µM): 2.5%
inhibition ([8]; compound 0.1 µM): 7.6%
inhibition ([9]; compound 0.01 µM): -2.7%
inhibition ([9]; compound 0.1 µM): 5.2%
inhibition ([10]; compound 0.01 µM): -3.6%
inhibition ([10]; compound 0.1 µM): -3.8%
inhibition ([11]; compound 0.01 µM): 2.1%
inhibition ([11]; compound 0.1 µM): 2.3%
inhibition ([12]; compound 0.01 µM): 4.9%
inhibition ([12]; compound 0.1 µM): 17.7%
inhibition ([13]; compound 0.01 µM): 5.8%
inhibition ([13]; compound 0.1 µM): 6.9%
inhibition ([14]; compound 0.01 µM): -2.5%
inhibition ([14]; compound 0.1 µM): -14.9%
inhibition ([15]; compound 0.01 µM): -1%
inhibition ([15]; compound 0.1 µM): -2.3%
inhibition ([16]; compound 0.01 µM): 0.8%
inhibition ([16]; compound 0.1 µM): 7.4%
inhibition ([17]; compound 0.01 µM): -1%
inhibition ([17]; compound 0.1 µM): -7.1%
inhibition ([18]; compound 0.01 µM): 4.3%
inhibition ([18]; compound 0.1 µM): 1.3%
inhibition ([19]; compound 0.01 µM): -3.5%
inhibition ([19]; compound 0.1 µM): -0.6%
inhibition ([20]; compound 0.01 µM): -11%
inhibition ([20]; compound 0.1 µM): 4.3%
inhibition ([21]; compound 0.01 µM): -2.1%
inhibition ([21]; compound 0.1 µM): 9.2%
inhibition ([22]; compound 0.01 µM): 3.5%
inhibition ([22]; compound 0.1 µM): -10%
inhibition ([23]; compound 0.01 µM): 0.3%
inhibition ([23]; compound 0.1 µM): 9.7%
inhibition ([24]; compound 0.01 µM): 0.6%
inhibition ([24]; compound 0.1 µM): 0.3%
inhibition ([25]; compound 0.01 µM): 0.5%
inhibition ([25]; compound 0.1 µM): 16.5%
inhibition ([26]; compound 0.01 µM): 1.7%
inhibition ([26]; compound 0.1 µM): 7.8%
inhibition ([27]; compound 0.01 µM): 0.9%
inhibition ([27]; compound 0.1 µM): -2.6%
inhibition ([28]; compound 0.01 µM): 1.3%
inhibition ([28]; compound 0.1 µM): 3.4%
inhibition ([29]; compound 0.01 µM): 8.4%
inhibition ([29]; compound 0.1 µM): 5.5%
inhibition ([30]; compound 0.01 µM): 3.2% and -1.8%
inhibition ([30]; compound 0.1 µM): 9.2% and -4.9%
inhibition ([31]; compound 0.01 µM): -10.5%
inhibition ([31]; compound 0.1 µM): -4.8%
inhibition ([32]; compound 0.01 µM): -7.2%
inhibition ([32]; compound 0.1 µM): -1%
inhibition ([33]; compound 0.01 µM): -2.3%
inhibition ([33]; compound 0.1 µM): -2.1%
inhibition ([34]; compound 0.01 µM): -3%
inhibition ([34]; compound 0.1 µM): 9.7%
SMILES: Cn1cc(-c2cnc3ccc4ccc(CS(=O)(=O)NC5CCCCC5)cc4c(=O)c3c2)cn1

inhibition ([1]; compound 0.01 µM): -3.8%
inhibition ([1]; compound 0.1 µM): -4.2%
inhibition ([2]; compound 0.01 µM): -0.4%
inhibition ([2]; compound 0.1 µM): -7.3%
inhibition ([3]; compound 0.01 µM): 1.4%
inhibition ([3]; compound 0.1 µM): -0.5%
inhibition ([4]; compound 0.01 µM): 5.8%
inhibition ([4]; compound 0.1 µM): 8.4%
inhibition ([5]; compound 0.01 µM): 1.4%
inhibition ([5]; compound 0.1 µM): 0.6%
inhibition ([6]; compound 0.01 µM): 4.1%
inhibition ([6]; compound 0.1 µM): 6.7%
inhibition ([7]; compound 0.01 µM): 2.6%
inhibition ([7]; compound 0.1 µM): -2%
inhibition ([8]; compound 0.01 µM): 3.6%
inhibition ([8]; compound 0.1 µM): 26.3%
inhibition ([9]; compound 0.01 µM): -6.5%
inhibition ([9]; compound 0.1 µM): 5.2%
inhibition ([10]; compound 0.01 µM): -1.1%
inhibition ([10]; compound 0.1 µM): 8.1%
inhibition ([11]; compound 0.01 µM): 2.8%
inhibition ([11]; compound 0.1 µM): -12.8%
inhibition ([12]; compound 0.01 µM): -13.2%
inhibition ([12]; compound 0.1 µM): -7.3%
inhibition ([13]; compound 0.01 µM): -4.6%
inhibition ([13]; compound 0.1 µM): 13.1%
inhibition ([14]; compound 0.01 µM): -4.3%
inhibition ([14]; compound 0.1 µM): -6.9%
inhibition ([15]; compound 0.01 µM): 0.2%
inhibition ([15]; compound 0.1 µM): 5%
inhibition ([16]; compound 0.01 µM): 2.8%
inhibition ([16]; compound 0.1 µM): -1.1%
inhibition ([17]; compound 0.01 µM): -12.1%
inhibition ([17]; compound 0.1 µM): -3.8%
inhibition ([18]; compound 0.01 µM): -2.8%
inhibition ([18]; compound 0.1 µM): -6%
inhibition ([19]; compound 0.01 µM): -1.6%
inhibition ([19]; compound 0.1 µM): -2.2%
inhibition ([20]; compound 0.01 µM): 4.3%
inhibition ([20]; compound 0.1 µM): 2.9%
inhibition ([21]; compound 0.01 µM): -8.5%
inhibition ([21]; compound 0.1 µM): -10.7%
inhibition ([22]; compound 0.01 µM): -4.1%
inhibition ([22]; compound 0.1 µM): 4.1%
inhibition ([23]; compound 0.01 µM): -1.9%
inhibition ([23]; compound 0.1 µM): 4.8%
inhibition ([24]; compound 0.01 µM): 19.6%
inhibition ([24]; compound 0.1 µM): -2.4%
inhibition ([25]; compound 0.01 µM): -8.2%
inhibition ([25]; compound 0.1 µM): 8.7%
inhibition ([26]; compound 0.01 µM): 8.7%
inhibition ([26]; compound 0.1 µM): -0.7%
inhibition ([27]; compound 0.01 µM): -2.6%
inhibition ([27]; compound 0.1 µM): -2.3%
inhibition ([28]; compound 0.01 µM): -1.6%
inhibition ([28]; compound 0.1 µM): 13.5%
inhibition ([29]; compound 0.01 µM): 5.6%
inhibition ([29]; compound 0.1 µM): 5.1%
inhibition ([30]; compound 0.01 µM): 2% and 2.1%
inhibition ([30]; compound 0.1 µM): 3.8% and -4.6%
inhibition ([31]; compound 0.01 µM): -2.5%
inhibition ([31]; compound 0.1 µM): -0.1%
inhibition ([32]; compound 0.01 µM): -19.5%
inhibition ([32]; compound 0.1 µM): -36.5%
inhibition ([33]; compound 0.01 µM): 9.3%
inhibition ([33]; compound 0.1 µM): -5.3%
inhibition ([34]; compound 0.01 µM): 12.6%
inhibition ([34]; compound 0.1 µM): -18.4%
SMILES: O=c1c2cc(CS(=O)(=O)NCc3ccccn3)ccc2ccc2ncc(C3CCNCC3)cc12
